Source: patent publication US20240207291A1, “METHODS FOR TREATING POXVIRUS INFECTIONS” (priority 2022, published 2024)
Where “and” joins values, the source holds several entries; their conditions need not be identical. Identical values can stand only once. Like-named read-outs stand apart in the source and are kept apart here.

Tests used:
[1] = system: vaccinia virus (modified vaccinia virus Ankara; MVA); assay: microbe, parasite or virus in culture; format: cell-based
[2] = in vitro; conditions: hamster
[3] = system: Vaccinia virus (MVA strain); format: cell-based
[4] = in vitro; conditions: hamster, BHK-21 cells, no virus, 2 days
[5] = CC50, Average of Tests 1-2 (Table 1)
[6] = CC50, Average, Tests 1-3 (Table 1A)
[7] = CC50, Test 2, uninfected BHK-21 cells, 3 days
[8] = CC50, Test 3, uninfected BHK-21 cells, 3 days

SMILES | EC50 [1] | EC50 ([1]; Orthopoxvirus vaccinia) [µM] | CC50 [2, 5] [µM] | CC50 [2, 6] [µM] | CC50 ([2]; CC50, Test 1, uninfected BHK-21 cells, 3 days) [µM] | CC50 [2, 7] [µM] | CC50 [2, 8] [µM] | EC50 ([3]; read-out: Average EC50 ± SD) [µM] | EC50 ([3]; read-out: EC50) [µM] | CC50 ([4]; CC50, n=3) [µM] | CC50 ([4]; CC50 ± SD, n=4) [µM]
Nc1ccn(C[C@@H](CO)OCP(=O)(O)O)c(=O)n1 [Cidofovir] | 2.6 µM and 7.2 µM | 4.9 | > 100 | > 73 | > 100 | > 100 | 73 | – | – | – | –
CCC(CC)COC(=O)[C@H](C)N[P@](=O)(OC[C@H]1O[C@@](C#N)(c2ccc3c(N)ncnn23)[C@H](O)[C@@H]1O)Oc1ccccc1 [Compound of Formula Ia, (S)-2-ethylbutyl 2-(((S)-(((2R,3S,4R,5R)-5-(4-aminopyrrolo[2,1-f][1,2,4]triazin-7-yl)-5-cyano-3,4-dihydroxytetrahydrofuran-2-yl)methoxy)(phenoxy)phosphoryl)amino)propanoate] | 2.3 µM and 0.55 µM | 1.43 | 12.8 | > 2.5 | – | 2.5 | > 50 | 0.773 ± 0.131 | 0.726 | 26.1 | 28.8 ± 11.5
